Measurements: US20060281791A1, “Methods of increasing proliferation of adult mammalian cardiomyocytes through p38 map kinase inhibition” (CHILDREN'S MEDICAL CENTER CORPORATION, priority 2005, published 2006)

Key:
[1] = test system: myocardial infarction in adult rats; experiment: Scar volume (trichrome stain) after myocardial infarction; type: in vivo, rat
Method: (§1) To determine whether p38 inhibition/FGF1 stimulation can induce cardiomyocyte proliferation in vivo and whether it has a positive effect on cardiac function after cardiac injury we created myocardial infarctions (MI) in adult rats (250 g) by coronary artery ligation. The p38 inhibitor SB203580 HCl or its vehicle, saline, were injected intraperitoneal every three days for the first month of the study. FGF1 or its carrier BSA was injected mixed with self-assembling peptides once into the infarct border zone immediately after coronary artery ligation. We injecting a total of 80 μl of 400 ng/ml FGF1, given at 3 different injection sites, into 400 mg of infarcted myocardium estimated to deliver a FGF 1 concentration to the cardiomyocytes of approximately 50 to 100 ng/ml. Animals were analyzed 24 hours, 2 weeks, and 3 month after surgery. […]
To determine if p38 inhibition and FGF1 stimulation have an effect on infarct size we determined scar volume using trichrome stain. […]
(§2) Scar formation was determined as fibrotic area/(fibrotic+non-fibrotic area) based on all sections. The thinning index is a ratio of the amount of wall thinning in the infarct normalized to the thickness of the septum and is calculated by dividing the minimal infarct wall thickness with maximal septal wall thickness (2 weeks: section 1 to 4, 3 month: section 1 to 6 from base).

[2] = test system: myocardial infarction in adult rats; experiment: Thinning index (ventricular wall thinning) after myocardial infarction; type: in vivo, rat
Method: as §1, with “We injecting a total of 80 μl of 400 ng/ml FGF1, given at 3 different injection sites, into 400 mg of infarcted myocardium estimated to deliver a FGF 1 concentration to the cardiomyocytes of approximately 50 to 100 ng/ml.” left out
Ventricular wall thinning is an important parameter of heart function. Thus, we determined the thickness of the ventricular wall after injury. For this purpose we calculated the thinning index (ratio of minimal ventricular wall thickness to maximal thickness of the septum). […]
as §2

[3] = test system: neonatal (P2) cardiomyocytes; experiment: Induction of DNA synthesis (BrdU incorporation) in neonatal cardiomyocytes; type: cell-based, rat; conditions: BrdU labeling period 24 to 72 hours; harvested after 72 hours; optimal concentration of stimulus
Method: Animal experiments were performed in accordance with guidelines of Children's Hospital, Boston and UCLA. Ventricular cardiomyocytes from fetal (E19), 2-day-old (P2) and adult (250-350 g) Wistar rats (Charles River) were isolated as described with minor modifications (Engel et al. 1999; Engel et al. 2003). After digestion of fetal or neonatal hearts (0.14 mg/ml collagenase II (Invitrogen), 0.55 mg/ml pancreatin (Sigma)) cells were cultured in DMEM/F12 (GIBCO) containing 3 mM Na-pyruvate, 0.2% BSA, 0.1 mM ascorbic acid (Sigma), 0.5% Insulin-Transferrin-Selenium (100×), penicillin (100 U/ml), streptomycin (100 μg/ml), and 2 mM L-glutamine (GIBCO). Adult cardiomyocytes were cultured for 1 day in standard medium (DMEM, 25 mM Hepes, 5 mM taurine, 5 mM creatine, 2 mM L-carnitine (Sigma), 20 U/ml insulin (GIBCO), 0.2% BSA, penicillin (100 U/ml), and streptomycin (100 μg/ml)). Cells were stimulated in culture medium without BSA containing 2 mM L-glutamine. Neonatal and adult cardiomyocytes were initially cultured for 48 h in the presence of 20 μM cytosine β-D-arabinofuranoside (araC, Sigma) and 5% horse serum before stimulation to prevent proliferation of non-myocytes. Adult cardiomyocytes were incubated another 3 days with araC during stimulation. Neonatal cardiomyocytes were stimulated every day with growth factors for BrdU and H3P analyses (FGF1 and NRG-1-1β at 50 ng/ml, IL-1β at 100 ng/ml, R&D Systems, all diluted in 0.1% BSA/PBS). SB203580 and LY294002 (Calbiochem) was added every day. Adult cardiomyocytes were stimulated with fresh medium and SB203580 every 3 days.
Staining was performed as described (Supplemental Table S3) (Engel et al. 1999; Engel et al. 2003). Immune complexes were detected with ALEXA 350, ALEXA 488 or ALEXA 594-conjugated secondary antibodies (1:200, Molecular Probes). DNA was visualised with DAPI (4′,6′-diamidino-2-phenylindole, 0.5 μg/ml, Sigma). For BrdU, cells were cultured in 30 μM BrdU, incubated after permeabilization for 90 min in 2N HCl/1% triton X-100 and washed 3 times in PBS.
(§3) Eighteen to 40 hearts of 3 different litters were used for quantitative analyses of maximal areas. For immunofluorescence analyses 1,500 fetal or neonatal cardiomyocytes were counted. For adult cardiomyocyte analyses in vitro the following number of cells were counted: 500-2,000 for BrdU or Ki67, 9,000-25,000 for H3P, and 12,000-45,000 for aurora B. For in vivo MKK3bE and p38α knockout experiments 2 different litters were used. We counted 1,500-2,000 cells in each apex, left and right ventricle per heart. For adult experiments we analyzed 2 p38α^Δ/Δ and 2 p38^lox/lox hearts (24 sections each). Statistical significance was determined using Student's t test.
Several growth factors have a limited capacity to induce DNA synthesis in neonatal cardiomyocytes, including FGF1 (Pasumarthi and Field 2002). We screened 45 extracellular factors at two different concentrations for their ability to induce BrdU incorporation in neonatal (P2) cardiomyocytes. […] We confirmed previous studies showing that FGF1, IL-1β, and NRG-1-β1 are potent growth factors for neonatal cardiomyocytes (Supplemental Table S2) (Pasumarthi and Field 2002 Circ Res 90: 1044-54).
Inhibition of p38 activity by SB203580 increased BrdU incorporation 2.8-fold in neonatal cardiomyocytes stimulated with FGF1 (p<0.01). Similar results were obtained after stimulation with IL-1β and NRG-1-β1. Thus, inhibition of p38 activity augments growth factor-mediated DNA synthesis in neonatal cardiomyocytes.

[4] = test system: adult cardiomyocytes; experiment: Ki67 staining of adult cardiomyocytes; type: cell-based, rat; conditions: 12 days of stimulation
Method: Animal experiments were performed in accordance with guidelines of Children's Hospital, Boston and UCLA. Ventricular cardiomyocytes from fetal (E19), 2-day-old (P2) and adult (250-350 g) Wistar rats (Charles River) were isolated as described with minor modifications (Engel et al. 1999; Engel et al. 2003). After digestion of fetal or neonatal hearts (0.14 mg/ml collagenase II (Invitrogen), 0.55 mg/ml pancreatin (Sigma)) cells were cultured in DMEM/F12 (GIBCO) containing 3 mM Na-pyruvate, 0.2% BSA, 0.1 mM ascorbic acid (Sigma), 0.5% Insulin-Transferrin-Selenium (100×), penicillin (100 U/ml), streptomycin (100 μg/ml), and 2 mM L-glutamine (GIBCO). […]
Staining was performed as described (Supplemental Table S3) (Engel et al. 1999; Engel et al. 2003). Immune complexes were detected with ALEXA 350, ALEXA 488 or ALEXA 594-conjugated secondary antibodies (1:200, Molecular Probes). […]
as §3, with “For adult experiments we analyzed 2 p38α^Δ/Δ and 2 p38^lox/lox hearts (24 sections each). Statistical significance was determined using Student's t test.” left out

Substance: FGF1: growth factor FGF1 (R&D Systems)
- scar size (scar volume) ([1]; 2 weeks): significantly reduced
- scar size (scar volume) ([1]; 3 month): significantly reduced
- left ventricular wall thinning (thinning index) ([2]; 2 weeks): significantly reduced
- ventricular wall thinning ([2]; 3 month): significantly improved
- % of BrdU positive neonatal cardiomyoctes [3]: 61.8 ± 2.1%
- Ki67-positive adult cardiomyocytes [4]: 1.7±0.5%
